Source: patent publication US8686150B2 (Sanofi, priority 2011, dated 2014)

Molecular target: T1, human full-length recombinant PKC βII (Homo sapiens, UniProt P05771)
T1 construct: Active human full-length recombinant PKC βII; purchased Invitrogen GmbH, Darmstadt, Germany
Experiment: Determination of PKC βII inhibition (Caliper mobility-shift kinase assay, Fluorescein-RFARKGSLRQKNV peptide substrate)
Assay type: biochemical
Conditions: example compounds at a final concentration of 1.14 μM (±0.15 μM)
How it was run: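 Compounds were tested at 1.14 μM final. Enzyme was activated by PS, DAG and CaCl2 in Hepes pH 7.4 with MgCl2, with substrate 3 μM and ATP 120 μM as pre-mix concentrations. After 60 min at 32 °C and an EDTA stop, Caliper separation gave fractional turnover, which was normalised to no-compound and no-enzyme controls.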

T1 sequence (P05771 1-673 isoform P05771-2): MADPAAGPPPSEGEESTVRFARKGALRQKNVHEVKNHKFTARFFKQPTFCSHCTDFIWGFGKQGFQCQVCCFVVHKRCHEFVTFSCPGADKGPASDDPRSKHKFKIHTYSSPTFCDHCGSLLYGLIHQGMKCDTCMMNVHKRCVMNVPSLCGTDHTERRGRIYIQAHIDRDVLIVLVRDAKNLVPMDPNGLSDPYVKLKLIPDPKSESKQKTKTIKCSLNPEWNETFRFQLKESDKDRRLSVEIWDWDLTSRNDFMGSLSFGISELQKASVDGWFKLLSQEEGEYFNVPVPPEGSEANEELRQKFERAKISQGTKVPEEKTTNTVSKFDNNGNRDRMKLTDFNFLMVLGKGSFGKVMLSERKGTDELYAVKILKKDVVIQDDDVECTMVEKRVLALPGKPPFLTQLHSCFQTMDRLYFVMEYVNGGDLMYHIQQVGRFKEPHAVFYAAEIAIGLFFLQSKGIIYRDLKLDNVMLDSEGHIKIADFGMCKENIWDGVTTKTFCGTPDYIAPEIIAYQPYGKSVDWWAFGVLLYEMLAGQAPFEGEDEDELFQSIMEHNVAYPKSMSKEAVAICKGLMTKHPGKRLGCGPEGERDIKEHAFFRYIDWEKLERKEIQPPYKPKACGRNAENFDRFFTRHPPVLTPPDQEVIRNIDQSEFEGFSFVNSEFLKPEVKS

Structure (SMILES)	inhibition at 1.14 µM [%]
CCC1(NC(=O)c2cc(-c3ccc(O)cc3C)nc3[nH]nc(C)c23)CCCNC1 (stereo not drawn) [Example 149, 6-(4-Hydroxy-2-methyl-phenyl)-3-methyl-1H-pyrazolo[3,4-b]pyridine-4-carboxylic acid (3-ethyl-piperidin-3-yl)-amide]	86
Cc1n[nH]c2nc(-c3ccc(O)cc3F)cc(C(=O)N3CCNCC3(C)c3ccccc3)c12 (stereo not drawn) [Example 435, [6-(2-Fluoro-4-hydroxy-phenyl)-3-methyl-1H-pyrazolo[3,4-b]pyridin-4-yl]-(2-methyl-2-phenyl-piperazin-1-yl)-methanone]	97
O=C(c1cc(-c2ccc(O)cc2)nc2[nH]nc(C(F)(F)F)c12)N1CC2(CCNCC2)C1 [Example 403, (2,7-Diaza-spiro[3.5]non-2-yl)-[6-(4-hydroxy-phenyl)-3-trifluoromethyl-1H-pyrazolo[3,4-b]pyridin-4-yl]-methanone]	55
CCC(CCN)NC(=O)c1cc(-c2ccc(O)cc2F)nc2[nH]nc(C)c12 (stereo not drawn) [Example 65, 6-(2-Fluoro-4-hydroxy-phenyl)-3-methyl-1H-pyrazolo[3,4-b]pyridine-4-carboxylic acid (3-amino-1-ethyl-propyl)-amide]	94
Cc1n[nH]c2nc(-c3ccc(O)cc3)cc(C(=O)N3CCNC[C@@H]3C)c12 [Example 188, [6-(4-Hydroxy-phenyl)-3-methyl-1H-pyrazolo[3,4-b]pyridin-4-yl]-((S)-2-methyl-piperazin-1-yl)-methanone]	105
Cc1n[nH]c2nc(-c3ccc(O)c(F)c3)cc(C(=O)N3CCC(N)CC3)c12 [Example 304, (4-Amino-piperidin-1-yl)-[6-(3-fluoro-4-hydroxy-phenyl)-3-methyl-1H-pyrazolo[3,4-b]pyridin-4-yl]-methanone]	91
CCc1n[nH]c2nc(-c3ccc(O)cc3)cc(C(=O)N3CC(N)C3)c12 [Example 160, (3-Amino-azetidin-1-yl)-[3-ethyl-6-(4-hydroxy-phenyl)-1H-pyrazolo[3,4-b]pyridin-4-yl]-methanone]	49
Cc1n[nH]c2nc(-c3ccc(O)c(F)c3)cc(C(=O)N3CCN[C@@H](C(C)C)C3)c12 [Example 326, [6-(3-Fluoro-4-hydroxy-phenyl)-3-methyl-1H-pyrazolo[3,4-b]pyridin-4-yl]-((S)-3-isopropyl-piperazin-1-yl)-methanone]	83
CCCC1CN(C(=O)c2cc(-c3ccc(O)cc3F)nc3[nH]nc(C)c23)C(CCC)CN1 (stereo not drawn) [Example 441, (2,5-Dipropyl-piperazin-1-yl)-[6-(2-fluoro-4-hydroxy-phenyl)-3-methyl-1H-pyrazolo[3,4-b]pyridin-4-yl]-methanone]	96
Cc1n[nH]c2nc(-c3ccc(O)cc3F)cc(C(=O)N3CCNCC3C(F)(F)F)c12 (stereo not drawn) [Example 60, [6-(2-Fluoro-4-hydroxy-phenyl)-3-methyl-1H-pyrazolo[3,4-b]pyridin-4-yl]-(2-trifluoromethyl-piperazin-1-yl)-methanone]	98
Cc1n[nH]c2nc(-c3ccc(O)cc3)cc(C(=O)N[C@@H]3CCC(=O)NC3)c12 [Example 208, 6-(4-Hydroxy-phenyl)-3-methyl-1H-pyrazolo[3,4-b]pyridine-4-carboxylic acid ((R)-6-oxo-piperidin-3-yl)-amide]	88
Cc1n[nH]c2nc(-c3ccc(O)cc3)cc(C(=O)N3C[C@H](C)NC[C@H]3C)c12 (relative stereo) [Example 73, (trans-2,5-Dimethyl-piperazin-1-yl)-[6-(4-hydroxy-phenyl)-3-methyl-1H-pyrazolo[3,4-b]pyridin-4-yl]-methanone]	95
Cc1n[nH]c2nc(-c3ccc(O)c(F)c3)cc(C(=O)N3CCN[C@@H](C)C3)c12 [Example 290, [6-(3-Fluoro-4-hydroxy-phenyl)-3-methyl-1H-pyrazolo[3,4-b]pyridin-4-yl]-((S)-3-methyl-piperazin-1-yl)-methanone]	96
COC(=O)[C@H]1CN(C(=O)c2cc(-c3ccc(O)cc3)nc3[nH]nc(C)c23)CCN1 [Example 211, (R)-4-[6-(4-Hydroxy-phenyl)-3-methyl-1H-pyrazolo[3,4-b]pyridine-4-carbonyl]-piperazine-2-carboxylic acid methyl ester]	64
Cc1n[nH]c2nc(-c3ccc(O)cc3)cc(C(=O)NCCN3CCC(c4ccccc4)CC3)c12 [Example 390, 6-(4-Hydroxy-phenyl)-3-methyl-1H-pyrazolo[3,4-b]pyridine-4-carboxylic acid [2-(4-phenyl-piperidin-1-yl)-ethyl]-amide]	67
Cc1n[nH]c2nc(-c3ccc(O)cc3)cc(C(=O)NC[C@H]3CC[C@H](N)CC3)c12 [Example 130, 6-(4-Hydroxy-phenyl)-3-methyl-1H-pyrazolo[3,4-b]pyridine-4-carboxylic acid (trans-4-amino-cyclohexylmethyl)-amide]	47
Cc1n[nH]c2nc(-c3ccc(O)cc3)cc(C(=O)NC[C@H]3CC[C@@H](N)CC3)c12 [Example 105, 6-(4-Hydroxy-phenyl)-3-methyl-1H-pyrazolo[3,4-b]pyridine-4-carboxylic acid (cis-4-amino-cyclohexylmethyl)-amide]	53

Results, then the compound that gave them:

inhibition at 1.14 µM [%]	Structure (SMILES)
98	Cc1n[nH]c2nc(-c3ccc(O)cc3)cc(C(=O)N3CCNCC3c3cccc(F)c3F)c12 (stereo not drawn) [Example 85, [2-(2,3-Difluoro-phenyl)-piperazin-1-yl]-[6-(4-hydroxy-phenyl)-3-methyl-1H-pyrazolo[3,4-b]pyridin-4-yl]-methanone]
96	Cc1cc(O)ccc1-c1cc(C(=O)N2CCNCC2c2ccccc2F)c2c(C)n[nH]c2n1 (stereo not drawn) [Example 151, [2-(2-Fluoro-phenyl)-piperazin-1-yl]-[6-(4-hydroxy-2-methyl-phenyl)-3-methyl-1H-pyrazolo[3,4-b]pyridin-4-yl]-methanone]
121	COC[C@H]1CNCCN1C(=O)c1cc(-c2ccc(O)cc2)nc2[nH]nc(C)c12 [Example 21, [6-(4-Hydroxy-phenyl)-3-methyl-1H-pyrazolo[3,4-b]pyridin-4-yl]-((R)-2-methoxymethyl-piperazin-1-yl)-methanone]
96	Cc1cc(O)ccc1-c1cc(C(=O)N2CCNCC2c2cccc(F)c2)c2c(C)n[nH]c2n1 (stereo not drawn) [Example 147, [2-(3-Fluoro-phenyl)-piperazin-1-yl]-[6-(4-hydroxy-2-methyl-phenyl)-3-methyl-1H-pyrazolo[3,4-b]pyridin-4-yl]-methanone]
80	Cc1n[nH]c2nc(-c3ccc(O)cc3)cc(C(=O)NC3CCCC(N)C3)c12 (stereo not drawn) [Example 254, 6-(4-Hydroxy-phenyl)-3-methyl-1H-pyrazolo[3,4-b]pyridine-4-carboxylic acid (3-amino-cyclohexyl)-amide]
41	Cc1n[nH]c2nc(-c3ccc(O)cc3)cc(C(=O)N3CCN(C(N)=O)CC3)c12 [Example 54, 4-[6-(4-Hydroxy-phenyl)-3-methyl-1H-pyrazolo[3,4-b]pyridine-4-carbonyl]-piperazine-1-carboxylic acid amide]
73	Cc1n[nH]c2nc(-c3ccc(O)c(F)c3)cc(C(=O)N3CC4(CCNCC4)C3)c12 [Example 339, (2,7-Diaza-spiro[3.5]non-2-yl)-[6-(3-fluoro-4-hydroxy-phenyl)-3-methyl-1H-pyrazolo[3,4-b]pyridin-4-yl]-methanone]
